From publication PMC12615753, “Glutathione as a taste modulator: molecular mechanisms of interaction with umami and sweet taste receptors” (Food Chemistry: Molecular Sciences, 2025) come the findings set out here.

Bounds are passed on as bounds.

The assay has as its target T1, hTAS1R1 D147A/rTAS1R3 (UniProt Q7RTX1+Q923K1, D147A).
T1 construct: UniProtKB number Q7RTX1–1); The cDNA coding region of rTAS1R3 was synthesized with optimized-codon usage for human expression; expressed in transfected cells; host or cells: HEK293T/17
T1 sequence (Q7RTX1 21-841 D147A): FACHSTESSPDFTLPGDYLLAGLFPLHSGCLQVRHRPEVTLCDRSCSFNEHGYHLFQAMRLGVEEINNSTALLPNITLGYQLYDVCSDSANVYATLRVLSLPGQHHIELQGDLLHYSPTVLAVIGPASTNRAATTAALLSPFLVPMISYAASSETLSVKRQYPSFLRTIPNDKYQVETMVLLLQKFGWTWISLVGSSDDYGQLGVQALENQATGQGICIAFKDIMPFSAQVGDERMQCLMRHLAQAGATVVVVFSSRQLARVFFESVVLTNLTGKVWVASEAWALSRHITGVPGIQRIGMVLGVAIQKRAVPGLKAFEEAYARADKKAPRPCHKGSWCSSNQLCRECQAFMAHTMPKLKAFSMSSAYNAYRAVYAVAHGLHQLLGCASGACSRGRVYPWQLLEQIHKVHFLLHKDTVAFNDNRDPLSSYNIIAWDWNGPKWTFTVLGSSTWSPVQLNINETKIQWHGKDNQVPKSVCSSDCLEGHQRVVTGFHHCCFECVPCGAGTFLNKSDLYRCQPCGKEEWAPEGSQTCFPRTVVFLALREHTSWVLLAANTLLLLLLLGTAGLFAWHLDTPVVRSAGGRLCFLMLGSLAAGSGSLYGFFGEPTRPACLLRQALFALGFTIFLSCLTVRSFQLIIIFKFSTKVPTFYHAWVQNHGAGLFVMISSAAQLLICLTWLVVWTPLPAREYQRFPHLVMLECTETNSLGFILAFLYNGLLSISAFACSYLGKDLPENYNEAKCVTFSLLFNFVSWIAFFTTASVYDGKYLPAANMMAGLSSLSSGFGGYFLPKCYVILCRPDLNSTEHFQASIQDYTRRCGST
T1 sequence (Q923K1 21-858): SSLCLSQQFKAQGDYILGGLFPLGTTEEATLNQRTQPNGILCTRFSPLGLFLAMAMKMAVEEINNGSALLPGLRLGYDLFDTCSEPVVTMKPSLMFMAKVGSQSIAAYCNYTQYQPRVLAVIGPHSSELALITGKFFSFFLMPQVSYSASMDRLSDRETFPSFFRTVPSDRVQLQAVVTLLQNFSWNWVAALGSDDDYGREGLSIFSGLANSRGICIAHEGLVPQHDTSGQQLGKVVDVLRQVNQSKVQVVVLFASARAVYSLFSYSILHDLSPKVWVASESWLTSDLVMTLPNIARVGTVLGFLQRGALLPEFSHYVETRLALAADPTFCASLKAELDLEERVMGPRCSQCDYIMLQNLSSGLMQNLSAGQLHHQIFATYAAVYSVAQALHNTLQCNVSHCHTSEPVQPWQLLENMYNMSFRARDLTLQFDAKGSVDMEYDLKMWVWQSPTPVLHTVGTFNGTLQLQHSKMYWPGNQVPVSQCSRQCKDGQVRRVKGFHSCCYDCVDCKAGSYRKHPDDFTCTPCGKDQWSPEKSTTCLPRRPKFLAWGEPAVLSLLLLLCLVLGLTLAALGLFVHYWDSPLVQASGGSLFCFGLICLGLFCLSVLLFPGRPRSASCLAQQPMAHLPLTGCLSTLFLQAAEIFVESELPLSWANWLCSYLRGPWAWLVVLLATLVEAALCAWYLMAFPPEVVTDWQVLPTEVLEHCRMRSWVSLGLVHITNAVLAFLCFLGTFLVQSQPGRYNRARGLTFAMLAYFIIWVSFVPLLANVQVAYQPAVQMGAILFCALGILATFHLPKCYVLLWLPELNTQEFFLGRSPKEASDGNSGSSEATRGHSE
In words: Calcium assay, hTAS1R1 mutant co-expressed with rTAS1R3. In kind it is cell-based, human, rat.

Regarding `N[C@@H](CCC(=O)N[C@@H](CS)C(=O)NCC(=O)O)C(=O)O` [GSH, γ-L-glutamyl-L-cysteinyl-glycine], the EC50 was over 30 mM. Further, where the note is “D147A”, the “effect of the added compound (1 mM) on the response to L-Glu” value is “did not affect” and the “response to the agonist alone, vs WT” value is reported as “fully abolished”.

Consider `CCCC(CCC)NC(=O)c1ccc2c(c1)OCO2` [S807, N-(heptan-4-yl)benzo[d][1,3]dioxole-5-carboxamide, reference compound], for which, under “D147A”, the “response to the agonist alone, vs WT” value is reported as “strongly affected”.
